Experiments:
HepG2 cells = experiment: Estimation of cellular ATP levels in HepG2 cells (BioVision kit); assay type: cell-based, human; settings: 24 hr treatment, amount of each test substance as in the group name (Table 1/3)
Experimental: In vitro evaluation of the modulatory potential of the test substances on cellular ATP levels in (HepG2) human Hepatocellular carcinoma cell line.
(§1) About 10 mg of all the test substances were dissolved separately with 1 ml DMEM-HG supplemented with 2% inactivated FBS to obtain a stock solution of 10 mg/ml concentration and sterilized by 0.22u syringe filtration. Diluted the stock to desired concentration for carrying out further studies.
(§2) Cell line HepG2 was procured from NCCS (National Center for Cell Sciences), Pune, and was cultured in DMEM-HG supplemented with 10% inactivated Fetal Bovine Serum (FBS), penicillin (100 IU/ml), streptomycin (100 μg/ml) and amphotericin B (5 μg/ml) in a humidified atmosphere of 5% CO2 at 37° C. until confluent. The cells were dissociated with TPVG solution (0.2% trypsin, 0.02% EDTA, 0.05% glucose in PBS). The stock cultures were grown in 25 cm^2 culture flasks and all experiments were carried out in 96 well microtitre plates (Tarsons India Pvt. Ltd., Kolkata, India).
HepG2 cells were trypsinized from stock culture flasks and the cell count was adjusted to 1.0×10^5cells/ml, the cell suspension was seeded into a 96-well plate. After 24 hr, cell cultures with 70-80% confluency, cells were treated with different non-toxic concentrations of test substances. After 24 hr of treatment, the plate was washed with phosphate buffer saline. The cellular ATP levels determination was performed according to the instruction given in the kit manual (BioVision, #K354-100). At the end of the experiment, the optical density was read at 570 nm using microplate reader. From the absorbance values, the cellular ATP levels were estimated using kit protocol and the concentration of cellular ATP levels in treated groups were determined in comparison to the control groups.

[1] = system: Patients with hepatic encephalopathy (HE); settings: patients with hepatic encephalopathy treated with ALCAR; cited from earlier work
MS-related fatigue = settings: treatment of MS-related fatigue; cited from earlier work
[2] = In vitro cytotoxicity by MTT assay on HepG2 cell line; assay type: cell-based, human; settings: human, HepG2 cells; for cytotoxicity at 24 h, 62.5 μg/mL: Test Conc. 62.5 μg/mL; for cytotoxicity at 24 h, 125 μg/mL: Test Conc. 125 μg/mL; for cytotoxicity at 24 h, 250 μg/mL: Test Conc. 250 μg/mL; for cytotoxicity at 24 h, 500 μg/mL: Test Conc. 500 μg/mL; for cytotoxicity at 24 h, 1000 μg/mL: Test Conc. 1000 μg/mL; for cytotoxicity at 24 h, 2000 μg/mL: Test Conc. 2000 μg/mL; for cytotoxicity at 24 h, 3000 μg/mL: Test Conc. 3000 μg/mL; for cytotoxicity at 24 h, 4000 μg/mL: Test Conc. 4000 μg/mL; for cytotoxicity at 24 h, 5000 μg/mL: Test Conc. 5000 μg/mL
Experimental: (§3) The in vitro cytotoxicity was performed on HepG2 (Human Hepatocellular Carcinoma) cell line to find the non-toxic concentrations of the test substances by MTT assay and evaluate their modulatory potential on cellular ATP levels
as §1, §2
(§4) The monolayer cell culture was trypsinized and the cell count was adjusted to 1.0×10^5cells/ml using DMEM-HG containing 10% FBS. To each well of the 96 well microtitre plate, 0.1 ml of the diluted cell suspension was added. After 24 h, when a partial monolayer was formed, the supernatant was flicked off, the monolayer was washed once with medium and 100 μl of different concentrations of test substances were added. The plate was then incubated at 37° C. for 24 h in a 5% CO2 atmosphere, and microscopic examination was carried out and observations were noted after 24 h time.
(§5) After 24 h of incubation, the drug solutions in the wells were discarded and 50 μl of MTT in DPBS was added to each well. The plate was gently shaken and incubated for 3 h at 37° C. in a 5% CO2 atmosphere. The supernatant was removed and 100 μl of 2-propanol was added and the plate was gently shaken to solubilize the formed formazan. The absorbance was measured using a microplate reader at a wavelength of 570 nm. The percentage growth inhibition was calculated using the standard formula. The concentration of test substances, needed to inhibit the growth of the cell by 50% i.e., CTC50 values were generated from the dose-response curves

HepG2 cell line = experiment: as above; assay type: cell-based, human; settings: Homo sapiens, concentration needed to inhibit growth of the cell by 50%, 24 h, read-out: CTC50
Experimental: as §3, §1, §2, §4, §5

[3] = cited from earlier work
[4] = cited from earlier work; remark: listed apart in the source
erythrocytes = settings: humans; after 24 h of continuous infusion; dose-dependent; cited from earlier work

Structure (SMILES)	Cellular ATP (HepG2 cells) [nM]	Percentage enhancement of cellular ATP levels over cell control (HepG2 cells) [%]	physical activity [1]	severity of mental and physical fatigue [1]	efficacy compared with amantadine (MS-related fatigue)	cytotoxicity at 24 h, 62.5 μg/mL [2] [%]	cytotoxicity at 24 h, 125 μg/mL [2] [%]	cytotoxicity at 24 h, 250 μg/mL [2] [%]	cytotoxicity at 24 h, 500 μg/mL [2] [%]	cytotoxicity at 24 h, 1000 μg/mL [2] [%]	cytotoxicity at 24 h, 2000 μg/mL [2] [%]	cytotoxicity at 24 h, 3000 μg/mL [2] [%]	cytotoxicity at 24 h, 4000 μg/mL [2] [%]	cytotoxicity at 24 h, 5000 μg/mL [2] [%]	IC50 (HepG2 cell line) [µg/mL]	stability in acidic conditions [3]	half-life of infused ATP [4]	increase of ATP concentrations in erythrocytes (erythrocytes) [%]
OO [Composition H2O2, H2O2, reference compound]	22.35 ± 0.48	−38.40																
CC(=O)O[C@H](CC(=O)O)C[N+](C)(C)C [N-Acetyl L carnitine, (3R)-3-acetyloxy-4-(trimethylazaniumyl) butanoate]	39.92 ± 0.45	10.00	increase	decrease	more effective	0.982 ± 0.876	0.546 ± 0.408	1.31 ± 0.134	1.69 ± 0.204	2.46 ± 1.58	2.62 ± 0.964	3 ± 0.736	5.18 ± 2.68	32.6 ± 2.55	> 5000			
CC(=O)NCCS(=O)(=O)O [Magnesium Acetyl Taurate, magnesium; 2-acetamidoethanesulfonate; dihydrate]	56.28 ± 0.56	55.07				1.31 ± 0.231	1.25 ± 0.91	1.75 ± 0.43	1.53 ± 0.408	1.36 ± 0.967	6.55 ± 0.482	3.71 ± 1.34	6.17 ± 2.39	12.2 ± 1.56	> 5000			
Nc1ncnc2c1ncn2[C@@H]1O[C@H](COP(=O)(O)OP(=O)(O)OP(=O)(O)O)[C@@H](O)[C@H]1O [ATP, Adenosine triphosphate]	119.88 ± 0.45	230.33														quickly decompose	less than one	~60

Reference: patent publication US12208077B2, “Synergistic composition for potentiating stabilized ATP” (CELAGENEX RESEARCH (INDIA) PVT. LTD., priority 2021, dated 2025)
